Literature values, collected in article PMC7373161, “Impact of Food and Drink Administration Vehicles on Paediatric Formulation Performance: Part 1—Effects on Solubility of Poorly Soluble Drugs” (AAPS PharmSciTech, 2020).

Compound: Nc1ccc(O)c(C(=O)O)c1 [mesalazine]
- isoelectric point (pI): 4.3 pH
